Experimental findings from paper PMC7216909 (Chembiochem, 2020) are described below.

The target of this assay is T1, FOYE-1 (Ferrovum sp. JA12, UniProt A0A0R0LNE8).
T1 sequence (A0A0R0LNE8 1-354): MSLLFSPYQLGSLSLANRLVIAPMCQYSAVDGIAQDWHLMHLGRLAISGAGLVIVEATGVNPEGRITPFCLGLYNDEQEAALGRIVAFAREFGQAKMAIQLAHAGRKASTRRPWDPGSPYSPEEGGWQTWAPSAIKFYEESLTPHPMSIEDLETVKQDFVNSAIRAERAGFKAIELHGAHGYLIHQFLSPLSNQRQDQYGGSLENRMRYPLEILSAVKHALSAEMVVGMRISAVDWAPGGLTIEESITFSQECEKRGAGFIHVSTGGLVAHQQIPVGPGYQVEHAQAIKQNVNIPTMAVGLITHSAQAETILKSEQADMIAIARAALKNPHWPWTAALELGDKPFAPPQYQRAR
In words: FMN quantification at […] nm in purified protein. It is filed as binding. The following applies: co-purified flavin cofactor; partly saturated holoprotein.

For the compound `Cc1cc2nc3c(=O)[nH]c(=O)nc-3n(C[C@H](O)[C@H](O)[C@H](O)COP(=O)(O)O)c2cc1C` [FMN], the FMN saturation result is listed as “found to be only partially saturated with the flavin mononucleotide (FMN) cofactor”.
